Drawing on patent US20250115620A1, “BRIDGED TRICYCLIC CARBAMOYLPYRIDONE COMPOUNDS AND USES THEREOF” (Gilead Sciences, Inc., priority 2022, published 2025), this text covers EC50 and CC50 for 16 compounds.

Structures are written as SMILES. Read-outs that look alike come from different tables or passages of the source.

In one data set the test system is pLAI reporter virus. In words: microbe, parasite or virus in culture. The class given is cell-based, HIV. The conditions noted are these: Human immunodeficiency virus 1, MT4, 72 h.
A short description of a further data set: in vitro. The conditions noted are these: human, uninfected MT-4 cells.
A further data set deals with HIV-1 (IIIB). Briefly: microbe, parasite or virus in culture. It counts as cell-based. As to conditions: Human immunodeficiency virus 1, IIIB, MT4, 120 h, read-out: MT4 EC50.
[1] abbreviates: HIV-1 (IIIB) in MT-4 cells, 5 days incubation, Cell Titer Glo.

With `C[C@H]1CC[C@]2(CC(c3ccccn3)=NO2)[C@H]2CN1C(=O)c1c(O)c(=O)c(C(=O)NCc3ccc(F)cc3F)cn12` [Example 13, (3′S,5S,7′R)—N-(2,4-difluorobenzyl)-12′-hydroxy-3′-methyl-1′,11′-dioxo-3-(pyridin-2-yl)-1′,4′,5′,11′-tetrahydro-3′H,4H,7′H-spiro[isoxazole-5,6′-[2,7]methanopyrido[1,2-a][1,4]diazonine]-10′-carboxamide], the EC50 – broadly, the midpoint of the concentration-response curve – in the data set with pLAI reporter virus (read-out: RLUC 50% HS EC50) came out at 2.1 nM; in the data set on pLAI reporter virus (read-out: RLUC CCM EC50), 1.5 nM; with HIV-1 (IIIB) (setting [1]) it was 4.3 nM. Besides, the CC50 (as a rule, the concentration at which the toxic effect on the cells reaches its halfway point) at 5 days in “in vitro” was at least 50000 nM.

With `COC1=NO[C@@]2(CC[C@H](C)N3C[C@H]2n2cc(C(=O)NCc4ncc(F)c(Cl)c4F)c(=O)c(O)c2C3=O)C1` [Example 64, (3′S,5S,7′R)—N-((4-chloro-3,5-difluoropyridin-2-yl)methyl)-12′-hydroxy-3-methoxy-3′-methyl-1′,11′-dioxo-1′,4′,5′,11′-tetrahydro-3′H,4H,7′H-spiro[isoxazole-5,6′-[2,7]methanopyrido[1,2-a][1,4]diazonine]-10′-carboxamide], the EC50 turned out to be 300 nM with pLAI reporter virus (read-out: RLUC 50% HS EC50), 0.6 nM in the data set on pLAI reporter virus (read-out: RLUC CCM EC50) and 2.9 nM in the data set with HIV-1 (IIIB). The compound also came in with a cytotoxic concentration (CC50) at 5 days in “in vitro” of 22900 nM.

In the case of `C[C@H]1CC[C@]2(CO[C@H](Cc3ccccc3)O2)[C@H]2CN1C(=O)c1c(O)c(=O)c(C(=O)NCc3c(F)cc(F)cc3F)cn12` [Example 134, (2S,3′S,4R,7′R)-2-benzyl-12′-hydroxy-3′-methyl-1′,11′-dioxo-N-(2,4,6-trifluorobenzyl)-1′,4′,5′,11′-tetrahydro-3′H,7′H-spiro[[1,3]dioxolane-4,6′-[2,7]methanopyrido[1,2-a][1,4]diazonine]-10′-carboxamide], the EC50 in the data set with pLAI reporter virus (read-out: RLUC 50% HS EC50) was determined as 6.3 nM; with pLAI reporter virus (read-out: RLUC CCM EC50), 1.9 nM; in the data set on HIV-1 (IIIB), 4.8 nM. This compound had a 50% cytotoxic concentration (CC50) at 5 days in “in vitro” of 8500 nM.

Regarding `C[C@@H]1OC[C@]2(CC[C@H](C)N3C[C@H]2n2cc(C(=O)NCc4c(F)cc(F)cc4F)c(=O)c(O)c2C3=O)O1` [Example 133, (2R,3′S,4R,7′R)-12′-hydroxy-2,3′-dimethyl-1′,11′-dioxo-N-(2,4,6-trifluorobenzyl)-1′,4′,5′,11′-tetrahydro-3′H,7′H-spiro[[1,3]dioxolane-4,6′-[2,7]methanopyrido[1,2-a][1,4]diazonine]-10′-carboxamide], the figures for the 50% effective concentration (EC50) with pLAI reporter virus (read-out: RLUC 50% HS EC50), with pLAI reporter virus (read-out: RLUC CCM EC50) and in the data set with HIV-1 (IIIB) (setting [1]) were 102 nM, 0.5 nM and 1.7 nM, respectively. This compound also displayed a half-maximal cytotoxic concentration (CC50) at 5 days in “in vitro” of 20200 nM.

For `COC[C@@H]1CO[C@@]2(CC[C@H](C)N3C[C@H]2n2cc(C(=O)NCc4c(F)cc(F)cc4F)c(=O)c(O)c2C3=O)O1` (single isomer, unassigned) [168 (peak 1)], the EC50 in the data set with pLAI reporter virus (read-out: RLUC 50% HS EC50) was found to be 2 nM; with pLAI reporter virus (read-out: RLUC CCM EC50), 0.4 nM; in the data set on HIV-1 (IIIB) (setting [1]), 1.1 nM. Moreover, it took 28900 nM to reach half-maximal cytotoxicity in the data set “in vitro” (CC50 at 5 days).

For the compound `C[C@H]1CC[C@]2(CC(C#N)=NO2)[C@H]2CN1C(=O)c1c(O)c(=O)c(C(=O)NCc3ccc(F)cc3F)cn12` [Example 42, (3′S,5S,7′R)-3-cyano-N-(2,4-difluorobenzyl)-12′-hydroxy-3′-methyl-1′,11′-dioxo-1′,4′,5′,11′-tetrahydro-3′H,4H,7′H-spiro[isoxazole-5,6′-[2,7]methanopyrido[1,2-a][1,4]diazonine]-10′-carboxamide], the concentration giving a half-maximal response (EC50) with pLAI reporter virus (read-out: RLUC 50% HS EC50) was 550 nM; with pLAI reporter virus (read-out: RLUC CCM EC50), 157 nM; in the data set with HIV-1 (IIIB) (setting [1]), at least 100 nM. In addition, in “in vitro”, the CC50 at 5 days was at least 50000 nM.

As to `CC1=NO[C@@]2(CC[C@H](C)N3C[C@H]2n2cc(C(=O)NCc4ccc(F)cc4F)c(=O)c(O)c2C3=O)[C@H]1O` [Example 28, (3′S,4S,5R,7′R)—N-(2,4-difluorobenzyl)-4,12′-dihydroxy-3,3′-dimethyl-1′,11′-dioxo-1′,4′,5′,11′-tetrahydro-3′H,4H,7′H-spiro[isoxazole-5,6′-[2,7]methanopyrido[1,2-a][1,4]diazonine]-10′-carboxamide], the EC50 with pLAI reporter virus (read-out: RLUC 50% HS EC50) is 51.5 nM; in the data set on pLAI reporter virus (read-out: RLUC CCM EC50), 0.4 nM; with HIV-1 (IIIB) (setting [1]), 0.9 nM. Moreover, the CC50 at 5 days in the data set “in vitro” was determined as 47000 nM.

On to `C[C@H]1CC[C@]2(CC(=O)N(Cc3ccc4c(cnn4C)c3)O2)[C@H]2CN1C(=O)c1c(O)c(=O)c(C(=O)NCc3c(F)cc(F)cc3F)cn12` [Example 103, (3′S,5S,7′R)-12′-hydroxy-3′-methyl-2-((1-methyl-1H-indazol-5-yl)methyl)-1′,3,11′-trioxo-N-(2,4,6-trifluorobenzyl)-1′,4′,5′,11′-tetrahydro-3′H,7′H-spiro[isoxazolidine-5,6′-[2,7]methanopyrido[1,2-a][1,4]diazonine]-10′-carboxamide], for which the results for the EC50 with pLAI reporter virus (read-out: RLUC 50% HS EC50), with pLAI reporter virus (read-out: RLUC CCM EC50) and in the data set on HIV-1 (IIIB) (setting [1]) were 0.4 nM, 0.2 nM and 1.5 nM, respectively. This compound also displayed a CC50 at 5 days in the data set “in vitro” of at least 50000 nM.

Regarding `C[C@H]1CC[C@]2(CC(c3cccnc3)=NO2)[C@H]2CN1C(=O)c1c(O)c(=O)c(C(=O)NCc3ccc(F)cc3F)cn12` [Example 14, (3′S,5S,7′R)—N-(2,4-difluorobenzyl)-12′-hydroxy-3′-methyl-1′,11′-dioxo-3-(pyridin-3-yl)-1′,4′,5′,11′-tetrahydro-3′H,4H,7′H-spiro[isoxazole-5,6′-[2,7]methanopyrido[1,2-a][1,4]diazonine]-10′-carboxamide], the EC50 in the data set on pLAI reporter virus (read-out: RLUC 50% HS EC50) came out at 4.1 nM; in the data set with pLAI reporter virus (read-out: RLUC CCM EC50) it was 0.8 nM; in the data set with HIV-1 (IIIB) (setting [1]), 1.6 nM. The compound also registered a CC50 at 5 days in “in vitro” of 16700 nM.

Consider `C[C@H]1CC[C@]2(CC(=O)N(Cc3ccc4ccccc4c3)O2)[C@H]2CN1C(=O)c1c(O)c(=O)c(C(=O)NCc3c(F)cc(F)cc3F)cn12` [Example 107, (3′S,5S,7′R)-12′-hydroxy-3′-methyl-2-(naphthalen-2-ylmethyl)-1′,3,11′-trioxo-N-(2,4,6-trifluorobenzyl)-1′,4′,5′,11′-tetrahydro-3′H,7′H-spiro[isoxazolidine-5,6′-[2,7]methanopyrido[1,2-a][1,4]diazonine]-10′-carboxamide], for which the values for the half-maximal effective concentration (EC50) with pLAI reporter virus (read-out: RLUC 50% HS EC50), in the data set with pLAI reporter virus (read-out: RLUC CCM EC50) and in the data set on HIV-1 (IIIB) (setting [1]) were 10.2 nM, 0.3 nM and 0.8 nM, respectively. The same compound returned a CC50 at 5 days in “in vitro” of at least 50000 nM.

In the case of `CCC1=NO[C@@]2(CC[C@H](C)N3C[C@H]2n2cc(C(=O)NCc4c(F)cc(F)cc4F)c(=O)c(O)c2C3=O)C1` [Example 67, (3′S,5S,7′R)-3-ethyl-12′-hydroxy-3′-methyl-1′,11′-dioxo-N-(2,4,6-trifluorobenzyl)-1′,4′,5′,11′-tetrahydro-3′H,4H,7′H-spiro[isoxazole-5,6′-[2,7]methanopyrido[1,2-a][1,4]diazonine]-10′-carboxamide], the EC50 in the data set on pLAI reporter virus (read-out: RLUC 50% HS EC50) came out at 190 nM; in the data set on pLAI reporter virus (read-out: RLUC CCM EC50) it was 0.3 nM; with HIV-1 (IIIB) (setting [1]) it was 1.3 nM. Moreover, the CC50 at 5 days in “in vitro” is 20000 nM.

Turning to `CC1=NO[C@@]2(CC[C@H](C)N3C[C@H]2n2cc(C(=O)NCc4c(F)cc(F)cc4F)c(=O)c(O)c2C3=O)[C@@H]1F` [Example 33, (3′S,4R,5R,7′R)-4-fluoro-12′-hydroxy-3,3′-dimethyl-1′,11′-dioxo-N-(2,4,6-trifluorobenzyl)-1′,4′,5′,11′-tetrahydro-3′H,4H,7′H-spiro[isoxazole-5,6′-[2,7]methanopyrido[1,2-a][1,4]diazonine]-10′-carboxamide], the 50% effective concentration (EC50) in the data set on pLAI reporter virus (read-out: RLUC 50% HS EC50) came to 342 nM; with pLAI reporter virus (read-out: RLUC CCM EC50) it was 0.4 nM; in the data set on HIV-1 (IIIB) (setting [1]) it was 0.7 nM. The compound further gave a CC50 at 5 days in “in vitro” of 14100 nM.

Take `COC1=NO[C@@]2(CC[C@H](C)N3C[C@H]2n2cc(C(=O)NCc4cc(F)c(F)cc4F)c(=O)c(O)c2C3=O)C1` [Example 65, (3′S,5S,7′R)-12′-hydroxy-3-methoxy-3′-methyl-1′,11′-dioxo-N-(2,4,5-trifluorobenzyl)-1′,4′,5′,11′-tetrahydro-3′H,4H,7′H-spiro[isoxazole-5,6′-[2,7]methanopyrido[1,2-a][1,4]diazonine]-10′-carboxamide]: the EC50 in the data set on pLAI reporter virus (read-out: RLUC 50% HS EC50) was determined as 107 nM; in the data set with pLAI reporter virus (read-out: RLUC CCM EC50), 0.6 nM; in the data set with HIV-1 (IIIB) (setting [1]), 1.6 nM. The compound also came in with a CC50 at 5 days in “in vitro” of 26300 nM.

Consider `C[C@H]1CC[C@]2(CC(n3cnnc3)=NO2)[C@H]2CN1C(=O)c1c(O)c(=O)c(C(=O)NCc3c(F)cc(F)cc3F)cn12` [Example 76, (3′S,5S,7′R)-12′-hydroxy-3′-methyl-1′,11′-dioxo-3-(4H-1,2,4-triazol-4-yl)-N-(2,4,6-trifluorobenzyl)-1′,4′,5′,11′-tetrahydro-3′H,4H,7′H-spiro[isoxazole-5,6′-[2,7]methanopyrido[1,2-a][1,4]diazonine]-10′-carboxamide], for which the half-maximal effective concentration (EC50) in the data set with pLAI reporter virus (read-out: RLUC 50% HS EC50) was determined as 3.3 nM; with pLAI reporter virus (read-out: RLUC CCM EC50), 0.4 nM; with HIV-1 (IIIB) (setting [1]), 2.2 nM. The compound also yielded a half-maximal cytotoxic concentration (CC50) at 5 days in “in vitro” of 10100 nM.

Turning to `C[C@H]1CC[C@]2(CC(=O)N(CCc3ccccc3)O2)[C@H]2CN1C(=O)c1c(O)c(=O)c(C(=O)NCc3c(F)cc(F)cc3F)cn12` [Example 105, (3′S,5S,7′R)-12′-hydroxy-3′-methyl-1′,3,11′-trioxo-2-phenethyl-N-(2,4,6-trifluorobenzyl)-1′,4′,5′,11′-tetrahydro-3′H,7′H-spiro[isoxazolidine-5,6′-[2,7]methanopyrido[1,2-a][1,4]diazonine]-10′-carboxamide], the values for the EC50 with pLAI reporter virus (read-out: RLUC 50% HS EC50), in the data set with pLAI reporter virus (read-out: RLUC CCM EC50) and in the data set on HIV-1 (IIIB) (setting [1]) were 15.5 nM, 0.3 nM and 1.2 nM, respectively. This compound also registered a CC50 at 5 days in “in vitro” of at least 50000 nM.

On to `CCC1=NO[C@@]2(CC[C@H](C)N3C[C@H]2n2cc(C(=O)NCc4c(F)cc(F)cc4F)c(=O)c(O)c2C3=O)O1` [Example 93, (3′S,5R,7′R)-3-ethyl-12′-hydroxy-3′-methyl-1′,11′-dioxo-N-(2,4,6-trifluorobenzyl)-1′,4′,5′,11′-tetrahydro-3′H,7′H-spiro[[1,4,2]dioxazole-5,6′-[2,7]methanopyrido[1,2-a][1,4]diazonine]-10′-carboxamide], for which the EC50 in the data set with pLAI reporter virus (read-out: RLUC 50% HS EC50) stood at 622 nM; with pLAI reporter virus (read-out: RLUC CCM EC50), 0.2 nM; with HIV-1 (IIIB) (setting [1]), 0.7 nM. Further, in the data set “in vitro”, it took 13600 nM to reach half-maximal cytotoxicity (CC50 at 5 days).
